From PubChem BioAssay AID330 (DTP/NCI, 2004)
Toxic doses and inconclusive results are not listed. Rule for the calls: active = survival T/C of 150% or more; inactive = T/C below 125% in these data.

System: P388 leukemia ip, CD2F1 mice, survival T/C
Assay: NCI In Vivo Anticancer Drug Screen. Data for tumor model P388 Leukemia (intraperitoneal) in CD2F1 (CDF1) mice
Settings: endpoint: median survival time, higher = longer survival
Outline: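 Mice carrying the transplanted tumor received test compound or vehicle. Survival was recorded in each group, and the value is the treated-group measurement divided by that of the vehicle-treated control group.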

[1] = dose: 60.0 mg/kg/injection, schedule: Q01DX005 (ip), vehicle: saline with Tween-80
[2] = dose: 120.0 mg/kg/injection, schedule: Q01DX005 (ip), vehicle: saline with Tween-80
[3] = dose: 240.0 mg/kg/injection, schedule: Q01DX005 (ip), vehicle: saline with Tween-80
[4] = dose: 50.0 mg/kg/injection, schedule: Q01DX009 (ip), vehicle: saline with Tween-80
[5] = dose: 50.0 mg/kg/injection, schedule: Q04DX003 (ip), vehicle: saline with Tween-80
[6] = dose: 100.0 mg/kg/injection, schedule: Q01DX009 (ip), vehicle: saline with Tween-80
[7] = dose: 100.0 mg/kg/injection, schedule: Q04DX003 (ip), vehicle: saline with Tween-80
[8] = dose: 200.0 mg/kg/injection, schedule: Q04DX003 (ip), vehicle: saline with Tween-80
[9] = dose: 200.0 mg/kg/injection, schedule: Q01DX009 (ip), vehicle: saline with Tween-80

Measured: T/C

CCN(CC)C(CC(=O)C(C)(C)C)=NCCCN1CCN(C)CC1
inactive: dose: 50.0 mg/kg/injection, schedule: Q01DX009 (ip), vehicle: saline 98 % of control | dose: 100.0 mg/kg/injection, schedule: Q01DX009 (ip), vehicle: saline 100 % of control

COC(=O)c1nnn(-c2c(C)cccc2C(C)C)c1C(=O)c1ccccc1
inactive: [1] 100 % of control | [2] 109 % of control | [3] 94 % of control

COc1ccc2c(ccc3c(=O)c4c([nH]c32)CCC4)n1
inactive: dose: 12.5 mg/kg/injection, schedule: Q04DX002 (ip), vehicle: saline with Tween-80 111 % of control | dose: 25.0 mg/kg/injection, schedule: Q04DX002 (ip), vehicle: saline with Tween-80 114 % of control | dose: 50.0 mg/kg/injection, schedule: Q04DX002 (ip), vehicle: saline with Tween-80 95 % of control

CC(=O)OC1CC2CCC1(C)C2(C)C (stereo not drawn)
inactive: [4] 109 % of control | [5] 105 % of control | [6] 104 % of control | [7] 100 % of control | [8] 100 % of control

CCN(CC)CCSc1nnc(N)s1
inactive: dose: 50.0 mg/kg/injection, schedule: Q01DX001 (ip), vehicle: saline 103 % of control | dose: 100.0 mg/kg/injection, schedule: Q01DX001 (ip), vehicle: saline 103 % of control | dose: 200.0 mg/kg/injection, schedule: Q01DX001 (ip), vehicle: saline 99 % of control

O=C1/C(=N/O)Cc2ccccc21
inactive: dose: 12.5 mg/kg/injection, schedule: Q04DX003 (ip), vehicle: saline with Tween-80 100 % of control | dose: 25.0 mg/kg/injection, schedule: Q04DX003 (ip), vehicle: saline with Tween-80 100 % of control | [5] 100 % of control

O=C(O)c1cc(-c2ccc(Cl)cc2)nc2c(-c3ccccc3)cccc12
inactive: [4] 91 % of control | [6] 103 % of control | [9] 104 % of control

O=C(O)CCCC(=O)c1ccc2ccccc2c1
inactive: [4] 98 % of control | [6] 98 % of control | [9] 99 % of control

COC(=O)C(CSCc1ccccc1)NC(=O)CCNC(C)=O (stereo not drawn)
inactive: dose: 12.5 mg/kg/injection, schedule: Q01DX009 (ip), vehicle: distilled water + Tween-80 97 % of control | dose: 25.0 mg/kg/injection, schedule: Q01DX009 (ip), vehicle: distilled water + Tween-80 100 % of control | dose: 50.0 mg/kg/injection, schedule: Q01DX009 (ip), vehicle: distilled water + Tween-80 91 % of control | dose: 100.0 mg/kg/injection, schedule: Q01DX009 (ip), vehicle: distilled water + Tween-80 92 % of control | dose: 200.0 mg/kg/injection, schedule: Q01DX009 (ip), vehicle: distilled water + Tween-80 91 % of control

CCOC(=O)/C=C/c1ccc2c(c1)OCO2
inactive: [7] 100 % of control | [8] 90 % of control | dose: 400.0 mg/kg/injection, schedule: Q04DX003 (ip), vehicle: saline with Tween-80 100 % of control

O/N=C(/c1ccccc1)n1nnc2ccccc21
inactive: [1] 118 % of control | [2] 106 % of control | [3] 105 % of control

COC(OC)c1cc(=O)[nH]c(=S)[nH]1
inactive: dose: 50.0 mg/kg/injection, schedule: Q04DX003 (ip), vehicle: saline 95 % of control | dose: 100.0 mg/kg/injection, schedule: Q04DX003 (ip), vehicle: saline 96 % of control | dose: 200.0 mg/kg/injection, schedule: Q04DX003 (ip), vehicle: saline 93 % of control | dose: 400.0 mg/kg/injection, schedule: Q04DX003 (ip), vehicle: saline 104 % of control

CC(C)C(O)(C(=O)OCC1=CCN2CCC(O)C12)C(C)O (stereo not drawn)
inactive: dose: 50.0 mg/kg/injection, schedule: Q01DX005 (ip), vehicle: saline 103 % of control | dose: 100.0 mg/kg/injection, schedule: Q01DX005 (ip), vehicle: saline 109 % of control | dose: 200.0 mg/kg/injection, schedule: Q01DX005 (ip), vehicle: saline 117 % of control
